Assay [1] addresses T1, vascular endothelial growth factor (VEGF) (Homo sapiens, UniProt P15692).
T1 sequence (P15692 27-191 isoform P15692-4): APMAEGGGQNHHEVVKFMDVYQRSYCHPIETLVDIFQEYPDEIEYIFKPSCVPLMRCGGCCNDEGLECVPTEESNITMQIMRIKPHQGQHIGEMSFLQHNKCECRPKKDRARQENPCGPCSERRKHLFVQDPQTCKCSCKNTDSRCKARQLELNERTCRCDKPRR
Put plainly: ELISA for determination of binding of VEGF to heparin. The conditions noted are these: for IC50: inhibition of VEGF binding to heparin, NI = no inhibition; for inhibition of VEGF binding to heparin: inhibition towards both growth factors. The protocol:
Enzyme-linked immunosorbent assay (ELISA) for determination of binding of vascular endothelial growth factor (VEGF) to heparin: 96-well microplates were coated for 2 hours. at 23-25° C. with 5 μg/ml heparin-albumin (Rimon Biotech) and blocked with 1% bovine serum albumin (BSA) in phosphate buffer (PBS) with 0.05% Tween and 0.01% thimerosal for 2 hours. VEGF was added to the plates at a concentration of 10 ng/ml and the plates were thereafter incubated for 45 minutes at 23-25° C. The amount of VEGF bound to heparin was detected using anti-VEGF monoclonal antibody (Sigma Cat. No. V4758) at a concentration of 0.26 μg/ml and secondary antibodies Sheep anti-mouse IgG linked to horseradish peroxidase (1:2000) using 3,3′,5,5′-tetramethylbenzidine (TMB, Pierce Cat. No. 34021) as a substrate for peroxidase. The plates were read at 450 nm with a reference wavelength of 630 nm using a VERSAmax plate reader. […] Percent inhibition was calculated as compared with a control pre-incubated with a solution of 1% DMSO and the results are presented in Table 3 below.
For orientation: ELISA stands for enzyme-linked immunosorbent assay.

The target in assay [2] is T2, heparanase (H53) (Homo sapiens, UniProt Q9Y251).
T2 construct: The 45 kDa major subunit and the 8 kDa small subunit hetero-complex to form the 53 kDa active form of heparanase
T2 sequence (Q9Y251 36-109 limits assumed): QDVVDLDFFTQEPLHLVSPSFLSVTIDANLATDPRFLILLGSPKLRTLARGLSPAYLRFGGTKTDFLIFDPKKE
T2 sequence (Q9Y251 158-543 limits assumed): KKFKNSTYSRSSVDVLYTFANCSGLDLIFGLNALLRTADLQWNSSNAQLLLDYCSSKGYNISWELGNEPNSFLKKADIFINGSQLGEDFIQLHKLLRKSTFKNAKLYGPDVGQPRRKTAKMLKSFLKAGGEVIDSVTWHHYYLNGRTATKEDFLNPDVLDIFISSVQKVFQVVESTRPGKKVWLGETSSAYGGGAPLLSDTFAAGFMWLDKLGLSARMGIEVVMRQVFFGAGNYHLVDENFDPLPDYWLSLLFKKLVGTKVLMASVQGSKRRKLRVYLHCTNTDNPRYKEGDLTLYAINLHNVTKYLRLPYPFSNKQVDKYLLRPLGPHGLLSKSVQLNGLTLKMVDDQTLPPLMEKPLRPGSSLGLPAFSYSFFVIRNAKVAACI
Description: Heparanase (H53) assay (DMB assay). It is filed as biochemical. The conditions noted are these: for dual activity: inhibition of pro-heparanase activation (H60) and of heparanase activity (H53): compounds with an acidic group; for IC50: inhibition of heparanase activity, DMB assay, NI = no inhibition. Here is the method:
Heparanase (H53) assay: The rigidified compounds described herein were tested for inhibition of heparanase activity in the DMB assay described in U.S. Pat. No. 6,190,875. IC50 was calculated from inhibition curves of all active compounds.

Assay [3] addresses T3, recombinant human pro-heparanase (H60) (Homo sapiens, UniProt Q9Y251).
T3 construct: Heparanase maturation involves the removal of the signal peptide, transforming the 65 kDa pre-pro-heparanase into a 60 kDa pro-heparanase; made in house
T3 sequence (Q9Y251 36-543): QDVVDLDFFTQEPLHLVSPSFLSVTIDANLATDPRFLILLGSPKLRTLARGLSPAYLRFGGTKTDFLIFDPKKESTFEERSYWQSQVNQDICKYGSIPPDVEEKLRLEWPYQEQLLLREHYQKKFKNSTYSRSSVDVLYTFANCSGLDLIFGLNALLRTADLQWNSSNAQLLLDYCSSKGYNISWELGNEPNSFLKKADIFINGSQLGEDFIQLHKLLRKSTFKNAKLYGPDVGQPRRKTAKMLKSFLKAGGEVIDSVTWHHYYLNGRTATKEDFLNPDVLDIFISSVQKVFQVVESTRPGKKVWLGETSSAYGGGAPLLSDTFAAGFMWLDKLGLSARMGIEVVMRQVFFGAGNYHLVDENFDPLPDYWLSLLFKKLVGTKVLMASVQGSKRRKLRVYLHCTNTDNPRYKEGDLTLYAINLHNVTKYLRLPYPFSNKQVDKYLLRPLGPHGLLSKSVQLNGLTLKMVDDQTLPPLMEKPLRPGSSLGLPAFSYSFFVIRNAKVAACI
Put plainly: Pro-heparanase (H60) activation in a cell-based assay. The conditions noted are these: inhibition of pro-heparanase activation in CHO cells; NI = no inhibition. The protocol:
Pro-heparanase (H60) activation in a cell-based assay: Chinese hamster ovary (CHO) cells were grown in complete F12 medium supplemented with 10% fetal calf serum (FCS). […] The plates were incubated for 24 hours in a 37° C. humidified incubator with 5% CO2. […] The plates were further incubated for additional 4 hours. The pro-heparanase was allowed to internalize by the cells and further processed to generate the active 53 kDa heparanase. At the end of the incubation, the cells were lysed by three consecutive cycles of freezing and thawing in a −80° C. freezer and a 37° C. shaker.
The rigidified compounds described herein were tested for inhibition of pro-heparanase activation in the cell-based assay described above.

The target of assay [4] is β-FGF (Homo sapiens, UniProt P09038). Description: ELISA for determination of binding of β-FGF to heparin. The following applies: for IC50: inhibition of β-FGF binding to heparin, NI = no inhibition; for inhibition of β-FGF binding to heparin: inhibition towards both growth factors. The protocol: ELISA for determination of binding of β-FGF to heparin: 96-well microplates were coated for 2 hours at 23-25° C. with 5 μg/ml heparin-albumin (Rimon Biotech) and blocked with 1% BSA in PBS, with 0.05% Tween, and 0.01% thimerosal for 2 hours. β-FGF was added to the plates at a concentration of 10 ng/ml and plates were incubated for 45 minutes at 23-25° C. The amount of β-FGF bound to heparin was detected using anti-FGF monoclonal antibody (Sigma Cat. No. F6162) at a concentration of 2.5 ng/ml and secondary antibodies Sheep anti-mouse IgG linked to horseradish peroxidase (1:3000) TMB (Pierce Cat. No. 34021) was used as a substrate for peroxidase. The plates were read at 450 nm with a reference wavelength of 630 nm using a VERSAmax plate reader.

In assay [5] the test system is MDA-MB231 breast cancer cells. Description: In-vitro assay for inhibition of cell invasion (MDA-MB231). It is filed as cell-based. The conditions noted are these: Homo sapiens; MB231 cells (first value of cell); read-out: IC50 Invasion MB231/PC3/A375. The protocol:
(§1) In-vitro assay for inhibition of cell invasion: The ability of the rigidified compounds described herein to inhibit cell invasion was determined quantitatively using BD Biocoat FluoroBlok Invasion System (BD, cat No. FAL354165). MDA-MB231 breast cancer cells, human prostatic cancer PC3 cells and A375 melanoma cells were used for this assay. Cells (5×10^4 cells/ml) were pre-incubated with the compounds for 48 hours prior to the assay, at 37° C. and a 5% CO2 atmosphere.
(§2) Serial dilutions of each compound starting from a concentration which was previously found to be non-toxic to the cells (using Oxygen Biosensor System, BD), were prepared in DMSO and added to the cells to a final concentration of 1% DMSO. At the end of the pre-incubation, cells at each compound concentration were counted and 2×10^4 cells/well in basic medium were applied onto the top chamber of the insert of the Invasion system. 750 μl complete medium with 5% fetal calf serum was added to the bottom chambers. The tested compound was applied to the top and bottom chambers. Invasion plates were incubated for 22 hours at 37° C. and a 5% CO2 atmosphere.
At the end of the incubation, medium was aspirated from the upper chambers and the inserts were transferred to a plate containing Calcein AM (Molecular Probes), 4 μg/ml and incubated for 90 minutes at 37° C. and a 5% CO2 atmosphere.
(§3) Fluorescence of invaded cells was read in a fluorescence plate reader BMG POLARstar Galaxy, BMG at excitation/emission wavelength of 485/530 nm.

Assay [6] relates to human prostatic cancer PC3 cells. Put plainly: In-vitro assay for inhibition of cell invasion (PC3). The format is cell-based. The conditions noted are these: PC-3, PC3 cells (second value of cell), read-out: IC50 Invasion MB231/PC3/A375. Here is the method:
as §1
as §2, with “atmosphere. […]” for “atmosphere.”
as §3

From patent US7795255B2, “Rigidified compounds for modulating heparanase activity” (InSight Biopharmaceuticals Ltd., priority 2005, dated 2010) come the findings set out here.

β-FGF, sequence (P09038 143-288): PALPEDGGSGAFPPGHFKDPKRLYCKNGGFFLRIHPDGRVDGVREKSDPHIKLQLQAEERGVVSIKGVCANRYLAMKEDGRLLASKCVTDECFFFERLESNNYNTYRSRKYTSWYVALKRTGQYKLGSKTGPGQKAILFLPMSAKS

As for `O=C(O)CCCN1C(=O)c2cc3oc(-c4ccc([N+](=O)[O-])cc4)cc3n2C1=S` [Compound 2, 4-[2-(4-nitro-phenyl)-6-oxo-4-thioxo-6H-1-oxa-3b,5-diaza-cyclopenta[a]pentalen-5-yl]-butyric acid], the IC50 is 1.8 µM in assay [1]; 9 µM in assay [2]; 1 µM in assay [3]; 1.7 µM in assay [4]; 2.6 µM in assay [5]. Further, the “dual activity: inhibition of pro-heparanase activation (H60) and of heparanase activity (H53)” value (shortened to “dual activity: inhibition”) in assay [2] is “dual activity”.

In the case of `CCN(CC)C(=O)CCCN1C(=O)c2cc3oc(-c4ccc(Cl)cc4)cc3n2C1=S` [Compound 6, 4-[2-(4-chloro-phenyl)-6-oxo-4-thioxo-6H-1-oxa-3b,5-diaza-cyclopenta[a]pentalen-5-yl]-N,N-diethyl-butyramide], the IC50 is 0.16 µM in assay [1], 1.2 µM in assay [3], 0.15 µM in assay [4] and 0.17 µM in assay [5]. For the same compound, in assay [1], the “inhibition of VEGF binding to heparin” value is on record as “sub-micromolar”. For the same compound, the “inhibition of β-FGF binding to heparin” value in assay [4] was “sub-micromolar”.

Take `CC(C)(CC(=O)O)CN1C(=O)c2cc3oc(-c4ccc(Cl)cc4)cc3n2C1=S` [Compound 11, 4-[2-(4-chloro-phenyl)-6-oxo-4-thioxo-6H-1-oxa-3b,5-diaza-cyclopenta[a]pentalen-5-yl]-3,3-dimethyl-butyric acid]: the IC50 stood at 1.4 µM in assay [6]; 1.2 µM in assay [1]; 37 µM in assay [2]; 0.27 µM in assay [3]; 1.8 µM in assay [4]; 0.75 µM in assay [5]. In assay [2], the “dual activity: inhibition” value was “dual activity”.

Consider `CN1CCN(C(=O)CC(C)(C)CN2C(=O)c3cc4oc(-c5ccc(Cl)cc5)cc4n3C2=S)CC1` [Compound 16, 2-(4-Chloro-phenyl)-5-[2,2-dimethyl-4-(4-methyl-piperazin-1-yl)-4-oxo-butyl]-4-thioxo-4,5-dihydro-1-oxa-3b,5-diaza-cyclopenta[a]pentalen-6-one], for which the IC50 is 0.29 µM in assay [1], 0.09 µM in assay [3], 0.2 µM in assay [4] and 0.035 µM in assay [5]. Besides, in assay [1], the “inhibition of VEGF binding to heparin” value is “sub-micromolar”. In addition, the “inhibition of β-FGF binding to heparin” value in assay [4] was “sub-micromolar”.

Regarding `CN(CC(=O)O)C(=O)CC(C)(C)CN1C(=O)c2cc3oc(-c4ccc(Cl)cc4)cc3n2C1=S` [Compound 21, ({4-[2-(4-Chloro-phenyl)-6-oxo-4-thioxo-6H-1-oxa-3b,5-diaza-cyclopenta[a]pentalen-5-yl]-3,3-dimethyl-butyryl}-methyl-amino)-acetic acid], the IC50 amounted to 7.3 µM in assay [1], 66.2 µM in assay [2], 1 µM in assay [3] and 6.5 µM in assay [4]. In addition, the “dual activity: inhibition” value in assay [2] is on record as “dual activity”.

For `CC(C)(CC(=O)N1CCC[C@@H]1C(=O)O)CN1C(=O)c2cc3oc(-c4ccc(Cl)cc4)cc3n2C1=S` [Compound 23, 1-{4-[2-(4-Chloro-phenyl)-6-oxo-4-thioxo-6H-1-oxa-3b,5-diaza-cyclopenta[a]pentalen-5-yl]-3,3-dimethyl-butyryl}-pyrrolidine-2-carboxylic acid], the IC50 in assay [1] worked out at 9.3 µM; in assay [3] it was 0.82 µM; in assay [4] it was 7.9 µM. The “dual activity: inhibition” value in assay [2] is “dual activity”.

Take `O=C(O)CCCN1C(=O)c2cc3oc(-c4cccc(C(F)(F)F)c4)cc3n2C1=S` [Compound 26]: the IC50 came out at 4.8 µM in assay [1], 10.2 µM in assay [2], 0.78 µM in assay [3] and 1.7 µM in assay [4].

In the case of `CCOC(=O)CCCN1C(=O)c2cc3sc(-c4ccc([N+](=O)[O-])cc4)cc3n2C1=S` [Compound 31, 4-[2-(4-nitro-phenyl)-6-oxo-4-thioxo-6H-1-thia-3b,5-diaza-cyclopenta[a]pentalen-5-yl]-butyric acid ethyl ester], the IC50 in assay [1] is 0.07 µM; in assay [2] it was 74 µM; in assay [3], 0.56 µM; in assay [4], 0.28 µM. In assay [1], the “inhibition of VEGF binding to heparin” value is recorded as “sub-micromolar”. Moreover, the “inhibition of β-FGF binding to heparin” value in assay [4] is on record as “sub-micromolar”.
